# Measurements as given in US20070128217A1 (priority 2003, published 2007).
# What was measured:
# [1] = tested on: antibodies in sera from SARS patients (sera 1a, 1b, 2, 6, 37, 62, London, SARS-yellow, SARS-green); format: binding, human; design: Binding of serum 6 to linear peptides of protein X1 of SARS-CoV Urbani / Binding of serum 37 to linear peptides of protein X1 of SARS-CoV Urbani / Binding of serum 6 to looped/cyclic peptide (PEPSCAN-ELISA) / Binding of serum 37 to looped/cyclic peptide (PEPSCAN-ELISA) / Binding of serum 37 to looped/cyclic peptides of protein X1 of SARS-CoV Urbani / Binding of serum 6 to linear peptides of protein X2 / Binding of serum 37 to linear peptides of protein X2 / Binding of serum 37 to looped/cyclic peptides of protein X2 of SARS-CoV Urbani / Binding of serum 6 to linear peptides of protein M of SARS-CoV Urbani / Binding of serum 37 to linear peptides of protein M of SARS-CoV Urbani / Binding of serum 6 to looped/cyclic peptides of protein M of SARS-CoV Urbani / Binding of serum 37 to looped/cyclic peptides of protein M of SARS-CoV Urbani / Binding of serum 6 to linear peptides of protein X3 of SARS-CoV Urbani / Binding of serum 37 to linear peptides of protein X3 of SARS-CoV Urbani / Binding of serum 37 to looped/cyclic peptides of protein X3 of SARS-CoV Urbani / Binding of serum 6 to linear peptides of protein X4 of SARS-CoV Urbani / Binding of serum 37 to linear peptides of protein X4 of SARS-CoV Urbani / Binding of serum 37 to looped/cyclic peptides of protein X4 of SARS-CoV Urbani / Binding of serum 6 to linear peptides of protein X5 of SARS-CoV Urbani / Binding of serum 37 to linear peptides of protein X5 of SARS-CoV Urbani / Binding of serum 37 to looped/cyclic peptides of protein X5 of SARS-CoV Urbani / Binding of serum 6 to linear peptides of protein N of SARS-CoV Urbani / Binding of serum 37 to linear peptides of protein N of SARS-CoV Urbani / Binding of serum 6 to linear peptide (PEPSCAN-ELISA) / Binding of serum 1a to looped/cyclic peptides of protein N of SARS-CoV Urbani / Binding of serum 1b to looped/cyclic peptides of protein N of SARS-CoV Urbani / Binding of serum 2 to looped/cyclic peptides of protein N of SARS-CoV Urbani / Binding of serum 6 to looped/cyclic peptides of protein N of SARS-CoV Urbani / Binding of serum 37 to looped/cyclic peptides of protein N of SARS-CoV Urbani / Binding of serum 62 to looped/cyclic peptides of protein N of SARS-CoV Urbani / Binding of serum London to looped/cyclic peptides of protein N of SARS-CoV Urbani / Binding of serum SARS-green to looped/cyclic peptides of protein N of SARS-CoV Urbani: unit not given here
# [2] = tested on: rabbit serum obtained by immunizing a rabbit with the SARS-CoV strain Frankfurt 1; format: binding; design: Binding of a rabbit serum to linear peptides / Binding of a rabbit serum to looped peptides / Rabbit serum linear peptides / Rabbit serum looped peptides / Binding of a rabbit serum to linear peptides of protein N of SARS-CoV Urbani (Rabbit serum linear peptides) / Binding of a rabbit serum to looped/cyclic peptides of protein N of SARS-CoV Urbani (Rabbit serum looped peptides): unit not given here
# [3] = tested on: recombinant human anti-SARS-CoV antibody 03-018; format: binding; design: Binding of antibody 03-018 to linear peptides of the N protein of SARS-CoV Urbani / Binding of antibody 03-018 to looped/cyclic peptides of the N protein of SARS-CoV Urbani: unit not given here
# [4] = tested on: control sera (pooled serum of ten healthy LUMC hospital workers; commercial negative donor pooled serum from the Dutch bloodbank); format: binding, human; design: Binding of Control serum LUMC to linear peptides / Binding of Control serum Blood-bank to linear peptides / Binding of Control serum LUMC to looped peptides / Binding of Control Serum Blood-Bank to Looped peptides / Binding of Control serum LUMC to linear peptides of the protein M of SARS-CoV Urbani / Binding of Control serum Blood-bank to linear peptides of the protein M of SARS-CoV Urbani / Binding of Control serum LUMC to looped peptides of the protein M of SARS-CoV Urbani / Binding of Control Serum Blood-Bank to Looped peptides of the protein M of SARS-CoV Urbani: unit not given here
Sequence,Binding of serum 1a to linear peptides of protein N of SARS-CoV Urbani [1],Binding of serum 1a to looped/cyclic peptides of protein N of SARS-CoV Urbani [1],Binding of serum 1b to linear peptides of protein N of SARS-CoV Urbani [1],Binding of serum 1b to looped/cyclic peptides of protein N of SARS-CoV Urbani [1],Binding of serum 2 to linear peptides of protein N of SARS-CoV Urbani [1],Binding of serum 2 to looped/cyclic peptides of protein N of SARS-CoV Urbani [1],Binding of serum 6 to linear peptides of protein N of SARS-CoV Urbani [1],Binding of serum 6 to looped/cyclic peptides of protein N of SARS-CoV Urbani [1],Binding of serum 37 to linear peptides of protein N of SARS-CoV Urbani [1],Binding of serum 37 to looped/cyclic peptides of protein N of SARS-CoV Urbani [1],Binding of serum 62 to linear peptides of protein N of SARS-CoV Urbani [1],Binding of serum 62 to looped/cyclic peptides of protein N of SARS-CoV Urbani [1],Binding of serum London to linear peptides of protein N of SARS-CoV Urbani [1],Binding of serum London to looped/cyclic peptides of protein N of SARS-CoV Urbani [1],Binding of serum SARS-green to linear peptides of protein N of SARS-CoV Urbani [1],Binding of serum SARS-green to looped/cyclic peptides of protein N of SARS-CoV Urbani [1],Binding of serum SARS-yellow to linear peptides of protein N of SARS-CoV Urbani [1],Binding of serum SARS-yellow to looped/cyclic peptides of protein N of SARS-CoV Urbani [1],Binding of a rabbit serum to linear peptides of protein N of SARS-CoV Urbani (Rabbit serum linear peptides) [2],Binding of a rabbit serum to looped/cyclic peptides of protein N of SARS-CoV Urbani (Rabbit serum looped peptides) [2],also measured
EELRFPRGQGVPINT,0.2,0.6,0.1,0.4,0.3,0.8,0.2,0.5,0.7,1.0,0.7,1.2,0.5,0.7,0.4,0.9,0.6,0.8,0.1,0.6,Binding of antibody 03-018 to linear peptides of the N protein of SARS-CoV Urbani [3]: 0.1; Binding of antibody 03-018 to looped/cyclic peptides of the N protein of SARS-CoV Urbani [3]: 0.3; Binding of Control Serum Blood-Bank to Looped peptides [4]: 1.3; Binding of Control serum Blood-bank to linear peptides [4]: 0.8; Binding of Control serum LUMC to linear peptides [4]: 0.8; Binding of Control serum LUMC to looped peptides [4]: 1.1
ELRFPRGQGVPINTN,0.2,0.4,0.1,0.3,0.3,0.5,0.1,0.3,0.7,0.7,0.7,0.6,0.5,0.5,0.4,0.7,0.6,0.4,0.1,0.4,Binding of antibody 03-018 to linear peptides of the N protein of SARS-CoV Urbani [3]: 0.1; Binding of antibody 03-018 to looped/cyclic peptides of the N protein of SARS-CoV Urbani [3]: 0.2; Binding of Control Serum Blood-Bank to Looped peptides [4]: 0.7; Binding of Control serum Blood-bank to linear peptides [4]: 0.6; Binding of Control serum LUMC to linear peptides [4]: 0.8; Binding of Control serum LUMC to looped peptides [4]: 0.7
ELSPRWYFYYLGTGP,0.2,0.3,0.2,0.2,0.3,0.4,0.2,0.2,0.8,0.8,0.7,0.7,0.5,0.4,0.4,0.3,0.7,0.5,0.1,0.4,Binding of antibody 03-018 to linear peptides of the N protein of SARS-CoV Urbani [3]: 0.1; Binding of antibody 03-018 to looped/cyclic peptides of the N protein of SARS-CoV Urbani [3]: 0.2; Binding of Control Serum Blood-Bank to Looped peptides [4]: 0.7; Binding of Control serum Blood-bank to linear peptides [4]: 0.6; Binding of Control serum LUMC to linear peptides [4]: 0.5; Binding of Control serum LUMC to looped peptides [4]: 0.5
